The values that follow come from US20200171056A1, “SULFONYLUREA COMPOUNDS IN THE TREATMENT OF DISEASE ASSOCIATED WITH UV-INDUCED DAMAGE” (CeMM - Forschungszentrum für Molekulare Medizin GmbH, priority 2017, published 2020).

One assay has as its system ΔXPA cells. In words: Short-term survival after UV irradiation (CellTiter-Glo). Type of assay: cell-based, human. The following applies: for protective effect of ΔXPA cells against UV (cell viability): different concentrations for 6 hours, then 10 J/M^2 UV (FIG. 10A-C). The text has this:
A. Schematic representation of the experimental setup used to perform the high-throughput drug screen, where drugs were used at five-times maximal plasma concentration (CLOUD; CeMM library of unique drugs). B. Bubble plot displaying the drugs used plotted against cell viability. Light grey bubbles indicate wildtype (WT) cells, dark grey bubbles indicate XPA-deficient cells (ΔXPA). […] C. Chemical structure of acetohexamide. D. Dose-response curve of WT and ΔXPA cells treated with or without 0.5 mM acetohexamide for 6 hours, followed by UV irradiation. Survival was assessed after 3 days, using CellTiter-Glo. […] Error bars indicate SEM (n=3). E. Colony formation using the same conditions indicated in (D), where cells were kept in culture for 10 days following UV irradiation, following which they were fixed and stained.
A-C. Cell viability of ΔXPA cells treated with different concentrations of acetohexamide (aceto), gliclazide (GLC) and glimepiride (GLM) for 6 hours, followed by 10 J/M^2 of UV irradiation. D. Survival of WT and ΔXPA cells treated with or without 50 μM glibenclamide for 6 hours, followed by UV exposure. Survival was assessed after 3 days using CellTitre-Glo. E. Cell viability of ΔXPA cells treated with 10 μM of different derivatives of acetohexamide for 6 hours, followed by UV irradiation with 5 J/M^2.
(§1) For UV irradiation, cells were washed with PBS, trypsinized, counted and distributed in equal number then irradiated with different doses of UV as indicated. Finally, 1,000 cells were re-distributed into 96 well plates. After 72 hours, survival was measured using Cell Titer-Glo (Promega). Cells were irradiated with UVC using the UVP CX-2000 device (254 nm, Fisher Scientific).
(In ATP-based viability assays light output follows the ATP content of the culture.)

A further assay deals with WT cells. The experiment in a line: Cell viability of WT cells after UV exposure, comparison with antioxidant. It counts as cell-based, human. Conditions: 30 μM NAC for 6 hours, then 30 J/M^2 UV, compared with 0.5 mM acetohexamide (FIG. 8E). As for the experimental part: A. WT and ΔXPA cells were either treated with DMSO or 0.5 mM acetohexamide for 6 hours. Cell cycle profiles were determined using propidium iodide (P1) staining followed by FACS analysis. B-D. Survival of WT HAP1 cells treated with either DMSO or 0.5 mM acetohexamide for 6 hours, followed by exposure to the indicated DNA damaging agents (MMC: mitomycin C; HU: hydroxyl urea; MMS: methyl methanesulfonate). Survival was assessed after 3 days using CellTitre-Glo. E. Cell viability of WT cells treated either with 0.5 mM acetohexamide or 30 μM N-acetylcysteine (NAC) for 6 hours, followed by 30 J/M^2 UV exposure.
as §1

For `Cc1ccc(S(=O)(=O)NC(=O)NN2CC3CCCC3C2)cc1` (stereo not shown) [gliclazide], the “protective effect of ΔXPA cells against UV (cell viability)” value with ΔXPA cells was “Only glimepiride showed a protective effect”.

With `COc1ccc(Cl)cc1C(=O)NCCc1ccc(S(=O)(=O)NC(=O)NC2CCCCC2)cc1` [glibenclamide], the “protective effect of ΔXPA cells against UV (survival)” value with ΔXPA cells (50 μM for 6 hours, then UV, survival after 3 days (FIG. 10D)) is “Only glimepiride showed a protective effect”.

For `CC(=O)N[C@@H](CS)C(=O)O` [N-acetylcysteine], the “alleviating UV-induced sensitivity (cell viability)” value with WT cells is recorded as “very minor effect in alleviating UV-induced sensitivity compared to acetohexamide”.

On to `CCC1=C(C)CN(C(=O)NCCc2ccc(S(=O)(=O)NC(=O)N[C@H]3CC[C@H](C)CC3)cc2)C1=O` [glimepiride], for which the “protective effect of ΔXPA cells against UV (cell viability)” value with ΔXPA cells is listed as “showed a protective effect”.
